In PMC9080233, “Synthesis and biological evaluation of novel quinolone derivatives dual targeting histone deacetylase and tubulin polymerization as antiproliferative agents” (RSC Advances, 2018):
Read-outs that look alike come from different tables or passages of the source.

Key:
healthy MCF-10A cells = assay: Toxicity to healthy cells, CCK-8 assay, MCF-10A; assay type: cell-based; conditions: for IC50: Homo sapiens, MCF-10A, healthy cells, CCK-8, 72 hours, >100 = not determinable up to highest concentrations tested
human recombinant HDAC6 = target: T1, human recombinant HDAC6 (Homo sapiens, UniProt Q9UBN7); assay: HDAC activity assay (fluorogenic HDAC assay kit), HDAC6; assay type: biochemical; conditions: for IC50: human recombinant HDAC6, 37 °C, 30 min; for Selectivity index HDAC6/1: ratio of IC50 HDAC1 to IC50 HDAC6; for Selectivity index HDAC6/2: ratio of IC50 HDAC2 to IC50 HDAC6;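 as to all read-outs here: underlying HDAC activity read as fluorescence, excitation 350 nm and emission 440 nm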
T1 construct: purchased BPS Bioscience, CA
T1 sequence (Q9UBN7 1-1215): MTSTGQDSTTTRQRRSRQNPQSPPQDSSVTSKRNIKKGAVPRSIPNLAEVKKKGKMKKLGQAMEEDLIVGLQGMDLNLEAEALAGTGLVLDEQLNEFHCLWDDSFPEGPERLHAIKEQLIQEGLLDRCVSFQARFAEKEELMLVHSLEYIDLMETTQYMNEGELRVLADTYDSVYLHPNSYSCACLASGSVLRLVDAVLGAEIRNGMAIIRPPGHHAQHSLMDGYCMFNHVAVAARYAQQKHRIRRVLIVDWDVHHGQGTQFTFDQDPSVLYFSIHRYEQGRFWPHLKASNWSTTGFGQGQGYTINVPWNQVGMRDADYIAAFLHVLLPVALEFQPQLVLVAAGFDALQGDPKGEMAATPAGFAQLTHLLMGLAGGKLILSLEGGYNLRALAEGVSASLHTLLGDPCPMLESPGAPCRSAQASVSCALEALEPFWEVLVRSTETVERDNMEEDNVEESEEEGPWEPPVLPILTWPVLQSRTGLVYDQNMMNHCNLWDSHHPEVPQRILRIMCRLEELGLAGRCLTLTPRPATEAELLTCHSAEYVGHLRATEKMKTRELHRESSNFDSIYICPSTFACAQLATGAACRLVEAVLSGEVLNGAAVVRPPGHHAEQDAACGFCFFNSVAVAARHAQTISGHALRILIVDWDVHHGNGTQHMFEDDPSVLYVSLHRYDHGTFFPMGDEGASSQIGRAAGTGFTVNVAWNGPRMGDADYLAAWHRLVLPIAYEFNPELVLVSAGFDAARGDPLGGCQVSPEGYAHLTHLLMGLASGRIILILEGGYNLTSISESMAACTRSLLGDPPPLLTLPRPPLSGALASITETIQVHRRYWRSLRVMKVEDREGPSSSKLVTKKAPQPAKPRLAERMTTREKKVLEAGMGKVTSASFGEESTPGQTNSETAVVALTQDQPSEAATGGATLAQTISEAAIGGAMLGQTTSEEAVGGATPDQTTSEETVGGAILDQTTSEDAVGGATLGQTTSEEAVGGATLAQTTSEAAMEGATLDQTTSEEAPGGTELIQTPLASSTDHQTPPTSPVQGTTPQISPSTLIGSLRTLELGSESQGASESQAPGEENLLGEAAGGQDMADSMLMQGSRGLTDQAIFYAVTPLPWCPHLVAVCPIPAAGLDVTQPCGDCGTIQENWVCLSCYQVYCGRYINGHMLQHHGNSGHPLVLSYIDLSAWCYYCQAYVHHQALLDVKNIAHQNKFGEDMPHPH

liver cancer cells HepG2 = assay: Antiproliferative activity, CCK-8 assay, HepG2; assay type: cell-based; conditions: Homo sapiens, CCK-8, 72 hours, mean ± SD
human recombinant HDAC1 = target: T2, human recombinant HDAC1 (Homo sapiens, UniProt Q13547); assay: HDAC activity assay (fluorogenic HDAC assay kit), HDAC1; assay type: biochemical; conditions: for IC50: human recombinant HDAC1, 37 °C, 30 min
T2 construct: purchased BPS Bioscience, CA

[1] = system: human lung adenocarcinoma cells A549; assay: Antiproliferative activity, CCK-8 assay, A549; assay type: cell-based; conditions: CCK-8, 72 hours, mean ± SD
[2] = system: human cervical carcinoma cells HeLa; assay: Antiproliferative activity, CCK-8 assay, HeLa; assay type: cell-based; conditions: read-out: IC50 HeLa
Experimental: Antitumor activities in vitro of synthetic compounds were measured using CCK-8 Assay Kit (BPS Bioscience, CA) according to the manufacturer's protocol. Cells were plated into 96-well plates with appropriate test compounds for 72 hours. Control cells were treated with serum free medium. Then CCK-8 solution was added to each well to determine cell viability. The IC50 values were calculated according to the dose-dependent curves (Origin software). IC50 values were determined using nonlinear regression analysis.

human recombinant HDAC2 = target: T3, human recombinant HDAC2 (Homo sapiens, UniProt Q92769); assay: HDAC activity assay (fluorogenic HDAC assay kit), HDAC2; assay type: biochemical; conditions: for IC50: human recombinant HDAC2, 37 °C, 30 min
T3 construct: purchased BPS Bioscience, CA

[3] = system: prostate cancer cells PC-3; assay: Antiproliferative activity, CCK-8 assay, PC-3; assay type: cell-based; conditions: Homo sapiens; CCK-8, 72 hours; mean ± SD
[4] = system: breast cancer cells MCF-7; assay: Antiproliferative activity, CCK-8 assay, MCF-7; assay type: cell-based; conditions: Homo sapiens, MCF7; CCK-8, 72 hours; mean ± SD
[5] = amide group of 9c replaced with ester group

T2 sequence (Q13547 whole entry): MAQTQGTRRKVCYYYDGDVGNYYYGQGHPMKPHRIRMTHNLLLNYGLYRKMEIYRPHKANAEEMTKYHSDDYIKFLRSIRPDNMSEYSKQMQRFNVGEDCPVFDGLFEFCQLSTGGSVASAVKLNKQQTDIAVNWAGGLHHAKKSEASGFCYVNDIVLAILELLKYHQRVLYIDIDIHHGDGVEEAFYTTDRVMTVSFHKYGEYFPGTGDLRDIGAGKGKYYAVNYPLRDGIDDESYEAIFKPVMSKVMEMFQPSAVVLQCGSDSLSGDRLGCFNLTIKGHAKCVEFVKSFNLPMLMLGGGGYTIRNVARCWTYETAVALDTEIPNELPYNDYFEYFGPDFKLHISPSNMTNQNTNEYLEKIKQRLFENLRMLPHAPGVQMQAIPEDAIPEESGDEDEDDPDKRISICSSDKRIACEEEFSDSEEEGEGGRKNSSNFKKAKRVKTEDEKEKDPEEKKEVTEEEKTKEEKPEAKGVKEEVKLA
T3 sequence (Q92769 whole entry): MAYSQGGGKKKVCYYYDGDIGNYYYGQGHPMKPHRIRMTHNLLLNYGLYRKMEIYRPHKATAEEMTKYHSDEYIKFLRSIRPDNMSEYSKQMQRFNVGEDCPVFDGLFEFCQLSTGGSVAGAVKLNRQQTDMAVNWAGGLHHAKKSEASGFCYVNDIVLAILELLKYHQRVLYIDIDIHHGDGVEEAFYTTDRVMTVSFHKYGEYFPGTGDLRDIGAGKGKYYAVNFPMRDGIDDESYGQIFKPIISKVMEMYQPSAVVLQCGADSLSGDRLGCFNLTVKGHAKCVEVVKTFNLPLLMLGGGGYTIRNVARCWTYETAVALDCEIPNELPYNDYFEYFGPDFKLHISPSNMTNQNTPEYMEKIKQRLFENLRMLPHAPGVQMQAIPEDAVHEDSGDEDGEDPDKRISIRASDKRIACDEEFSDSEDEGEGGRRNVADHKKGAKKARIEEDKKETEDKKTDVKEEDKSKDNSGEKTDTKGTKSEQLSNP

IC50 ([2]; 72 h) | SMILES | IC50 (healthy MCF-10A cells) | melting point | IC50 (human recombinant HDAC6) | Selectivity index HDAC6/1 (human recombinant HDAC6) | Selectivity index HDAC6/2 (human recombinant HDAC6) | IC50 (liver cancer cells HepG2) | IC50 (human recombinant HDAC1) | IC50 [1] | IC50 ([2]; CCK-8, 72 hours, mean ± SD) | IC50 (human recombinant HDAC2) | IC50 [3] | IC50 [4] | fold reduced potency anti-HDAC6 relative to 9c (human recombinant HDAC6; [5]) | fold reduced potency anti-HDAC1 relative to 9c (human recombinant HDAC1; [5]) | fold reduced potency anti-HDAC2 relative to 9c (human recombinant HDAC2; [5]) | toxicity to healthy MCF-10A cells (healthy MCF-10A cells; in words) | toxicity to healthy VERO cells (healthy MCF-10A cells; in words, conclusions)
 | C[C@H]1COc2c(N3CCN(C)CC3)c(F)cc3c(=O)c(C(=O)OCc4cn(CCCCCCCC(=O)O)nn4)cn1c23 [Compound 6c, (S)-8-(4-(((9-fluoro-3-methyl-10-(4-methylpiperazin-1-yl)-7-oxo-3,7-dihydro-2H-[1,4]oxazino[2,3,4-ij]quinoline-6-carbonyl)oxy)methyl)-1H-1,2,3-triazol-1-yl)octanoic acid] | > 100 µM | 196 to 199 °C | 4700 ± 510 nM | 1.5 | 1.7 | 12.7 ± 1.09 µM | 6900 ± 830 nM | 13.6 ± 1.16 µM | 14.6 ± 1.08 µM | 7900 ± 760 nM | 15.8 ± 1.43 µM | 10.5 ± 1.22 µM |  |  |  |  | 
 | C[C@H]1COc2c(N3CCN(C)CC3)c(F)cc3c(=O)c(C(=O)OCc4cn(CCCCCC(=O)O)nn4)cn1c23 [Compound 6a, (S)-6-(4-(((9-fluoro-3-methyl-10-(4-methylpiperazin-1-yl)-7-oxo-3,7-dihydro-2H-[1,4]oxazino[2,3,4-ij]quinoline-6-carbonyl)oxy)methyl)-1H-1,2,3-triazol-1-yl)hexanoic acid] | > 100 µM | 175 to 178 °C | 2100 ± 680 nM | 3.9 | 4.9 | 13.4 ± 1.36 µM | 8200 ± 1080 nM | 14.2 ± 1.28 µM | 12.3 ± 1.16 µM | 10400 ± 1870 nM | 16.5 ± 1.63 µM | 10.3 ± 1.12 µM |  |  |  |  | 
 | C[C@H]1COc2c(N3CCN(C)CC3)c(F)cc3c(=O)c(C(=O)OCc4cn(CCCCCC(=O)NO)nn4)cn1c23 [Compound 8a, (S)-(1-(6-(hydroxyamino)-6-oxohexyl)-1H-1,2,3-triazol-4-yl)methyl-9-fluoro-3-methyl-10-(4-methylpiperazin-1-yl)-7-oxo-3,7-dihydro-2H-[1,4]oxazino[2,3,4-ij]quinoline-6-carboxylate] | > 100 µM |  | 43 ± 53 nM | 1.7 | 3.1 | 9.8 ± 0.87 µM | 75 ± 31 nM | 8.9 ± 0.72 µM | 7.7 ± 0.64 µM | 134 ± 49 nM | 12.8 ± 1.42 µM | 3.5 ± 0.51 µM |  |  |  |  | 
 | C[C@H]1COc2c(N3CCN(C)CC3)c(F)cc3c(=O)c(C(=O)OCc4cn(CCCCCCCC(=O)NO)nn4)cn1c23 [Compound 8c, (S)-(1-(8-(hydroxyamino)-8-oxooctyl)-1H-1,2,3-triazol-4-yl)methyl-9-fluoro-3-methyl-10-(4-methylpiperazin-1-yl)-7-oxo-3,7-dihydro-2H-[1,4]oxazino[2,3,4-ij]quinoline-6-carboxylate] | > 100 µM |  | 52 ± 26 nM | 2.0 | 1.3 | 5.7 ± 0.49 µM | 104 ± 53 nM | 7.4 ± 0.44 µM | 6.8 ± 0.56 µM | 65 ± 16 nM | 10.4 ± 1.13 µM | 2.3 ± 0.27 µM | at least 2 fold | at least 2 fold | at least 2 fold |  | 
 | C[C@H]1COc2c(N3CCN(C)CC3)c(F)cc3c(=O)c(C(=O)NCc4cn(CCCCCCCC(=O)NO)nn4)cn1c23 [Compound 9c, (S)-9-Fluoro-N-((1-(8-(hydroxyamino)-8-oxooctyl)-1H-1,2,3-triazol-4-yl)methyl)-3-methyl-10-(4-methylpiperazin-1-yl)-7-oxo-3,7-dihydro-2H-[1,4]oxazino[2,3,4-ij]quinoline-6-carboxamide] | > 100 µM |  | 41 ± 25 nM | 0.9 | 1.9 | 3.6 ± 0.55 µM | 38 ± 14 nM | 4.2 ± 0.38 µM | 3.5 ± 0.24 µM | 76 ± 22 nM | 8.7 ± 0.62 µM | 1.1 ± 0.23 µM |  |  |  |  | 
2.9 ± 0.18 µM | O=C(CCCCCCC(=O)Nc1ccccc1)NO [SAHA, vorinostat, reference compound] |  |  |  |  |  |  |  |  |  |  |  |  |  |  |  | considerable toxicity | some extent inherent toxicity
